# Test results taken from PMC9945182 (Chemical Research in Toxicology, 2023).
# Like-named read-outs stand apart in the source and are kept apart here.
# Experiments:
# Type in all cases: biochemical
# [1] = molecular target: T1, CYP2A6 (Homo sapiens, UniProt P11509); conditions: for inhibition of cotinine formation: nicotine substrate, CYP2A6 microsomes, vs 100% activity control; for IC50: nicotine 100 μM, rec CYP2A6 microsomes
# T1 sequence (P11509 1-494): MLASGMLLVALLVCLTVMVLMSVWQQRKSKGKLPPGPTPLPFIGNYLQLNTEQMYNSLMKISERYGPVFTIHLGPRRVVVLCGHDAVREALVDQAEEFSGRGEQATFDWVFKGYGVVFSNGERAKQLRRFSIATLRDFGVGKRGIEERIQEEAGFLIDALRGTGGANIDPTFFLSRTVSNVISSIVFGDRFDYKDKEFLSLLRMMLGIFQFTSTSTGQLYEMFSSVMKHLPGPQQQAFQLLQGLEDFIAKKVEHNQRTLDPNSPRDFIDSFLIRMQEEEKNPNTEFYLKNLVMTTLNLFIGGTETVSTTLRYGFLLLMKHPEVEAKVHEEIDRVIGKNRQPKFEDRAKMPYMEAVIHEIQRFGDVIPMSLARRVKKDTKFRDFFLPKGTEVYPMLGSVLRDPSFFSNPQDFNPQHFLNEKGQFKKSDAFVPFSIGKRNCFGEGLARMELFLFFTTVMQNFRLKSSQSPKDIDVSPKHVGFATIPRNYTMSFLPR
# [2] = test system: human liver microsomes (HLM); assay: Inhibition of nicotine to cotinine formation in pooled human liver microsomes; conditions: nicotine 500 μM
# [3] = test system: human liver microsomes (HLM); assay: Inhibition of cotinine to 3HC formation in pooled human liver microsomes; conditions: cotinine 900 μM
# [4] = molecular target: T2, FMO1 (Homo sapiens, UniProt Q01740); conditions: 1 or 10 μM cannabinoid; nicotine 1 mM; FMO1 microsomes
# T2 sequence (Q01740 1-532): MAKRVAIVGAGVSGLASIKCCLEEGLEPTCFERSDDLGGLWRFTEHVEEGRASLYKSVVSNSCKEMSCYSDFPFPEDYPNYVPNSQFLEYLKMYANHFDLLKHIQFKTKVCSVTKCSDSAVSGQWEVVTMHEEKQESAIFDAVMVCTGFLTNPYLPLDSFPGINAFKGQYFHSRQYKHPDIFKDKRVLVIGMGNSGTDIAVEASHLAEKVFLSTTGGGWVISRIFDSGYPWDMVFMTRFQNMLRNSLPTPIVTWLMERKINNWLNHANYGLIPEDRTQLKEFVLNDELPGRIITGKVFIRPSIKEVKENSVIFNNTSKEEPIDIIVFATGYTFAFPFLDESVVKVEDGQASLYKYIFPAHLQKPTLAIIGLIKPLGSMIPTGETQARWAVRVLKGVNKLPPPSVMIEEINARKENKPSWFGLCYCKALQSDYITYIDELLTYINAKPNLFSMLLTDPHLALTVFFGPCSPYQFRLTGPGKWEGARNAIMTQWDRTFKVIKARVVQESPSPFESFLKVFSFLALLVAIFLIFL
# [5] = molecular target: T3, FMO3 (Homo sapiens, UniProt P31513); conditions: 1 or 10 μM cannabinoid; nicotine 1 mM; FMO3 microsomes
# T3 sequence (P31513 1-532): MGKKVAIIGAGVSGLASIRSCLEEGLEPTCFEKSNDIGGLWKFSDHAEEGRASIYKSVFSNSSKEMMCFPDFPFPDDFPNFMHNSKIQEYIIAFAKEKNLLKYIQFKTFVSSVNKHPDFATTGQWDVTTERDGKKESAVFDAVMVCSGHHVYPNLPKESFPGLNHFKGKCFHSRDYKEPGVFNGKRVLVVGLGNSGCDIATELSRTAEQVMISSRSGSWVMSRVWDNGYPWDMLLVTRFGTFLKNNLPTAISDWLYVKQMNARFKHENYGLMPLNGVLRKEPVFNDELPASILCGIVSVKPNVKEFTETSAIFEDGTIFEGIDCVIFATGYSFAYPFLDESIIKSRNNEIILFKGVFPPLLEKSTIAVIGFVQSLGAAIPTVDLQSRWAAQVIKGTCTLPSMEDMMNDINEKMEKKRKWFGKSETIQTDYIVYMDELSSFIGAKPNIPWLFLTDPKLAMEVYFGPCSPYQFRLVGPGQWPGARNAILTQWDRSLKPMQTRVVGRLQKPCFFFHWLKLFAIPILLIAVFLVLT
# [6] = molecular target: T4, UGT2B10 (Homo sapiens, UniProt P36537); conditions: UGT2B10 microsomes; nicotine or cotinine as substrate; screening
# T4 sequence (P36537 24-528): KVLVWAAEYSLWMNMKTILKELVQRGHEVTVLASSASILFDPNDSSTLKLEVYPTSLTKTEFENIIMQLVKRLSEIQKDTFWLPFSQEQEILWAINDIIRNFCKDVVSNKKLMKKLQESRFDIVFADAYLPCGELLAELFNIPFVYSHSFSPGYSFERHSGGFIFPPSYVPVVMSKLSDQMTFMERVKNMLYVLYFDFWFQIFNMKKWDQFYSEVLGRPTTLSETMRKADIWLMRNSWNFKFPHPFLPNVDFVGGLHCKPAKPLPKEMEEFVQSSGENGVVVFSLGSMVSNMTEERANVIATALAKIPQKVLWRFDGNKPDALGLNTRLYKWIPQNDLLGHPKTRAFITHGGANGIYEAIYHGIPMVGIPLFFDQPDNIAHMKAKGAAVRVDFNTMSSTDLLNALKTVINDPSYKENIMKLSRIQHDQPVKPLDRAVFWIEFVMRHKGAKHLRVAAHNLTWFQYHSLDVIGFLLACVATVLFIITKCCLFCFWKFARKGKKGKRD
# [7] = molecular target: T5, UGT1A4 (Homo sapiens, UniProt P22310); conditions: UGT1A4 microsomes; nicotine or cotinine as substrate; screening
# T5 sequence (P22310 29-534): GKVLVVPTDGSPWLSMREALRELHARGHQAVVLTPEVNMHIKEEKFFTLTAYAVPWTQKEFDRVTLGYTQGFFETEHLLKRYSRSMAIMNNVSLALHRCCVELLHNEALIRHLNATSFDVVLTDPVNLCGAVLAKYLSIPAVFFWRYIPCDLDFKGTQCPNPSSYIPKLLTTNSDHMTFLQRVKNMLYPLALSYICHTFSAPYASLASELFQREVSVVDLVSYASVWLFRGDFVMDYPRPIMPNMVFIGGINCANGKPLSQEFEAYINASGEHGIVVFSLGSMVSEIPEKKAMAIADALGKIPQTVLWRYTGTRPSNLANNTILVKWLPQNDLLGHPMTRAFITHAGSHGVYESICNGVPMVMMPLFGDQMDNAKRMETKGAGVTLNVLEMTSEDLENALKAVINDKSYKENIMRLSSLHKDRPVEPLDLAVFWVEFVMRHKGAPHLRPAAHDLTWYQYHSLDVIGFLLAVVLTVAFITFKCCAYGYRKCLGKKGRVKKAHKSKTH
Compound,inhibition of cotinine formation ([1]; 1 μM inhibitor) [%],inhibition of cotinine formation ([1]; 10 μM inhibitor) [%],"IC50 ([1]; cotinine formation, mean ± SD of three experiments) [µM]","IC50 ([1]; read-out: IC50,u (binding-corrected IC50), cotinine formation, IC50 × fu,inc) [µM]",IC50 [2] [µM],IC50 [3] [µM],inhibitory effect on NOX formation [4],inhibitory effect on NOX formation [5],inhibition of nicotine-Gluc or cotinine-Gluc formation [6],inhibition of nicotine-Gluc or cotinine-Gluc formation [7],"IC50 ([1]; IC50, cotinine formation, mean ± SD of three experiments) [µM]","IC50 ([1]; IC50,u (binding-corrected IC50), cotinine formation, IC50 × fu,inc) [µM]"
"C=C(C)[C@@H]1CCC(CO)=C[C@H]1c1c(O)cc(CCCCC)cc1O [7-OH-CBD, 7-hydroxy-cannabidiol]",50,75,5.8 ± 2.3,0.45 ± 0.18,21 ± 5.2,9.1 ± 3.4,No inhibitory effect,No inhibitory effect,no significant inhibition,no significant inhibition,,
"C=C(C)[C@@H]1CCC(C)=C[C@H]1c1c(O)cc(CCCCC)cc1O [CBD, cannabidiol]",,,,,10 ± 2.9,8.8 ± 1.3,No inhibitory effect,No inhibitory effect,no significant inhibition,no significant inhibition,4.4 ± 1,0.27 ± 0.06
